Measurements: patent US20110190129A1, “IMPROVEMENTS IN OR RELATING TO ORGANIC COMPOUNDS” (SYNGENTA LIMITED, priority 2007, published 2011)
Where two headings read alike, the source gives them in different places. Marks after values point to notes of the source that are not given here.

Test: Solubility of pesticide samples in solvents (equilibration, 25 C, HPLC analysis)
Assay type: physicochemical
Method: The following general method is used to measure the solubility of pesticide samples in solvents. A 2 ml aliquot of solvent is added to a 5 ml volume glass vial. Pesticide is added such that half of the volume of the liquid is filled. The sample is shaken for one minute and left to stand for 24 hours. Samples which have dissolved are refilled with more of the pesticide, shaken and left for a further 24 hours. This process is continued until the samples have equilibrated for three days without the need for further pesticide addition. The samples are then placed in a temperature controlled oven at 25 C for one week prior to analysis by high pressure liquid chromatography. All samples are filtered and centrifuged prior to chromatographic analysis.

[1] = comparison in words, dimethyl lactamide versus the other two solvents
[2] = solvent Solvesso 200ND, 25 C, Table 1
[3] = solvent acetophenone, 25 C, Table 1
[4] = solvent dimethyl lactamide, 25 C, Table 1

| Compound | Solubility in Solvesso 200ND (1 week) [% w/w] | Solubility in dimethyl lactamide (1 week) [% w/w] | Solubility in dimethyl lactamide compared with Solvesso 200ND or acetophenone [1] | Solubility in Solvesso 200ND [2] | Solubility in acetophenone [3] [% w/w] | Solubility in dimethyl lactamide [4] [% w/w] | Solubility in dimethyl lactamide compared with Solvesso 200ND or acetophenone | also measured |
| --- | --- | --- | --- | --- | --- | --- | --- | --- |
| Fc1ccc([C@]2(Cn3cncn3)O[C@H]2c2ccccc2Cl)cc1 (racemic) [Epoxiconazole, epoxiconazole] | 2.5 | 8.0 |  |  |  |  |  |  |
| CCNc1nc(NC(C)C)nc(SC)n1 [Ametryn] | 29.3 | 53.0 |  |  |  |  |  | Solubility in acetophenone (1 week): 47.4 % w/w |
| N#Cc1c(Cl)c(Cl)c(Cl)c(C#N)c1Cl [Chlorothalonil, chlorothalonil] |  |  | lower |  |  |  |  |  |
| CC(C)C1C2CCC1c1c(NC(=O)c3cn(C)nc3C(F)F)cccc12 (stereo not drawn) [Compound of FIG. 2, 3-difluoromethyl-1-methyl-1H-pyrazole-4-carboxylic acid(9-isopropyl-1,2,3,4-tetrahydro-1,4-methano-naphthalen-5-yl)-amide] |  |  | better | 5.6 % w/w | 14.1 | 32.1 |  |  |
| CN(C)C(=O)Nc1ccc(Cl)c(Cl)c1 [Diuron] |  |  |  | <0.2* % w/w | 4.8 | 11.0 |  |  |
| N#Cc1c[nH]cc1-c1cccc2c1OC(F)(F)O2 [Fludioxynil] |  |  | better | 0.3 % w/w | 8.5 | 30.1 |  |  |
| CCCCC(O)(Cn1cncn1)c1ccc(Cl)cc1Cl (stereo not drawn) [Hexaconazole, hexaconazole] | 4.4 | 18 |  |  |  |  | better | Solubility in acetophenone (1 week): 11.7 % w/w |
| CCN(CC)C(=O)C(C)Oc1cccc2ccccc12 (stereo not drawn) [Napropamide, napropamide] |  |  |  |  |  |  | lower | Solubility in Solvesso 200ND: 20.7; Solubility in acetophenone: 27.6 % w/w; Solubility in dimethyl lactamide: 19.2 % w/w |
| CSc1nc(NC(C)C)nc(NC(C)C)n1 [Prometryn, prometryn] | 12 | 43 |  |  |  |  | better | Solubility in acetophenone (1 week): 19 % w/w |
| CNC(=O)c1cc(Cl)cc(C)c1NC(=O)c1cc(Br)nn1-c1ncccc1Cl [Rynaxypry] |  |  |  | 0.06 % w/w | 0.75 | 2.8 |  |  |
| CN1COCN(Cc2cnc(Cl)s2)/C1=N\[N+](=O)[O-] [Thiamethoxam, thiamethoxam] |  |  | better | 0.2 % w/w | 5.0 | 9.0 |  |  |
| CCO/N=C(\CC)C1=C(O)CC(c2c(C)cc(C)cc2C)CC1=O (stereo not drawn) [Tralkoxydim, tralkoxydim] |  |  |  |  |  |  | lower | Solubility in acetophenone: 12.7 % w/w; Solubility in dimethyl lactamide: 3.2 % w/w |
